Experimental data from publication PMC4961458 (eLife, 2016).

Experiments:
AR = AR (Homo sapiens, UniProt P10275); test: AR competitive radioligand binding assay (MDA-MB-453 cell lysate); conditions: 0.6 nM 3H-R1881
Description: After reaching 90% confluence, cells were harvested, resuspended in TEGM (10 mM TrisHCl pH 7.2, 1 mM EDTA, 10% glycerol, 1 mM β-mercaptoethanol, 10 mM Sodium Molybdate), and frozen in liquid nitrogen in 10 mL aliquots containing 2 × 10^7 cells/mL. […] Reactions were incubated at 4°C overnight. Bound and unbound ligands were separated by ultrafiltration using a Unifilter-96 GF/C filter plate (Perkin Elmer). Bound ^3H-R1881 was eluted in 30 μL/well Microscint-20 and quantified using a scintillation counter (Top Count).

ER = system: ER; set-up: method as in Dickler et al., 2015; conditions: postmenopausal women with ER+ locally advanced or metastatic breast cancer, patients with FES-PET scans; ref Dickler et al., 2015; cited from earlier work
PR-B = target: T1, PR-B (Homo sapiens, UniProt P06401); test: PR-B transcriptional reporter assay, antagonist mode (HEPG2 cells); assay type: cell-based; conditions: 1 nM R5020
T1 construct: cloning full-length human PRb into pCDNA; expressed in transfected cells; host or cells: HEPG2
T1 sequence (P06401 1-933): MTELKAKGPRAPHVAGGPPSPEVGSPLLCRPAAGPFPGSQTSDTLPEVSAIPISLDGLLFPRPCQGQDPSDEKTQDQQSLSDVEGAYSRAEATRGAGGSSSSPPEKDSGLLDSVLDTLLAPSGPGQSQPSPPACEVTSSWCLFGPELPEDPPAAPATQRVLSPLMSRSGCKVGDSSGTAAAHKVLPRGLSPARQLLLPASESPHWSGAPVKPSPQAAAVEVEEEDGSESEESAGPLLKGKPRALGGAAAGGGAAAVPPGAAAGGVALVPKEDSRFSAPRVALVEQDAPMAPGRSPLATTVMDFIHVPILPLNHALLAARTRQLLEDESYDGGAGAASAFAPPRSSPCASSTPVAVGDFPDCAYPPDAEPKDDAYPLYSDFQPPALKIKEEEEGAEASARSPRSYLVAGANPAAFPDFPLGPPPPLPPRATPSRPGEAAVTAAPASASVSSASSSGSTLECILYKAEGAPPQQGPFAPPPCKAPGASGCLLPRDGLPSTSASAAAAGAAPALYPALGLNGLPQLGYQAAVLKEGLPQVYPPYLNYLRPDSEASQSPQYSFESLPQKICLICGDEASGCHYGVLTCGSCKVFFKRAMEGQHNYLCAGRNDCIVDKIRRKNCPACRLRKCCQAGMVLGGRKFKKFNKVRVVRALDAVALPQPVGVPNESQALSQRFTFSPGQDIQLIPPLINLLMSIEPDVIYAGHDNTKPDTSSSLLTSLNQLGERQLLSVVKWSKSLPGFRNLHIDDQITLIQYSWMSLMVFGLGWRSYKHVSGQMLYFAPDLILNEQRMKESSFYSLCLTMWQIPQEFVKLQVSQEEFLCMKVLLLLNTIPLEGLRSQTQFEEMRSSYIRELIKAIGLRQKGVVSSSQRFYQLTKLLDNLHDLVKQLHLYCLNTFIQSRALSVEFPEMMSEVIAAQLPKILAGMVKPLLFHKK

GR = target: T2, GR (Homo sapiens, UniProt P04150); test: GR transcriptional reporter assay, antagonist mode (CV1 cells); assay type: cell-based
T2 sequence (P04150 1-777): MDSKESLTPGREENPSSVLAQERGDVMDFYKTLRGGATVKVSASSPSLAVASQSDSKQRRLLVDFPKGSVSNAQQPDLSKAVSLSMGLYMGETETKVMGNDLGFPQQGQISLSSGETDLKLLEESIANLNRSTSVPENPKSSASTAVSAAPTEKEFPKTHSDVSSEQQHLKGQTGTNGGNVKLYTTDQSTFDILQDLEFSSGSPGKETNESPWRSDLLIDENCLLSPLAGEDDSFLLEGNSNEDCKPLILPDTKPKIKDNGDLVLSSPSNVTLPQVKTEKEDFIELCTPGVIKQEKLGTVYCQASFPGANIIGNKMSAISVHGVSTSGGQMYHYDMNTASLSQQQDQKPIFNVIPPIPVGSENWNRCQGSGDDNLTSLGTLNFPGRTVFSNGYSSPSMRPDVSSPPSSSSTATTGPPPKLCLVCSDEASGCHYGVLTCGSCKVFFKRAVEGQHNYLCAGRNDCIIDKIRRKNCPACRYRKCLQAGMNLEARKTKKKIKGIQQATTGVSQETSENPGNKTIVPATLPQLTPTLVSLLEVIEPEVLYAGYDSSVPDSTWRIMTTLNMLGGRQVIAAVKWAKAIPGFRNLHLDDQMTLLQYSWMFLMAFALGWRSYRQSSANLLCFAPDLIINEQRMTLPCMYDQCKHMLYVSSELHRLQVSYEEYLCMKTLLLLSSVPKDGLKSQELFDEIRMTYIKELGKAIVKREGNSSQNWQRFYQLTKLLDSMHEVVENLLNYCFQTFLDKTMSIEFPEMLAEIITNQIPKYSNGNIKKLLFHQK
Description: CV1 cells were maintained in MEM supplemented with 10% FBS. Transcriptional assays were performed by seeding 12 mL of cells at a density of 250,000 cells/mL into a T-75 cell culture flask in MEM supplemented with 5% charcoal-stripped serum and allowed to attach overnight. Cells were transiently transfected using FuGENE 6 (Roche Applied Science). […] Transfected cells were incubated overnight then split into four 96-well tissue culture plates and incubated for 4 hr followed by compound addition. […] The final agonist concentration used in the antagonist assays was 10 nM.

Sequence of AR (P10275 whole entry): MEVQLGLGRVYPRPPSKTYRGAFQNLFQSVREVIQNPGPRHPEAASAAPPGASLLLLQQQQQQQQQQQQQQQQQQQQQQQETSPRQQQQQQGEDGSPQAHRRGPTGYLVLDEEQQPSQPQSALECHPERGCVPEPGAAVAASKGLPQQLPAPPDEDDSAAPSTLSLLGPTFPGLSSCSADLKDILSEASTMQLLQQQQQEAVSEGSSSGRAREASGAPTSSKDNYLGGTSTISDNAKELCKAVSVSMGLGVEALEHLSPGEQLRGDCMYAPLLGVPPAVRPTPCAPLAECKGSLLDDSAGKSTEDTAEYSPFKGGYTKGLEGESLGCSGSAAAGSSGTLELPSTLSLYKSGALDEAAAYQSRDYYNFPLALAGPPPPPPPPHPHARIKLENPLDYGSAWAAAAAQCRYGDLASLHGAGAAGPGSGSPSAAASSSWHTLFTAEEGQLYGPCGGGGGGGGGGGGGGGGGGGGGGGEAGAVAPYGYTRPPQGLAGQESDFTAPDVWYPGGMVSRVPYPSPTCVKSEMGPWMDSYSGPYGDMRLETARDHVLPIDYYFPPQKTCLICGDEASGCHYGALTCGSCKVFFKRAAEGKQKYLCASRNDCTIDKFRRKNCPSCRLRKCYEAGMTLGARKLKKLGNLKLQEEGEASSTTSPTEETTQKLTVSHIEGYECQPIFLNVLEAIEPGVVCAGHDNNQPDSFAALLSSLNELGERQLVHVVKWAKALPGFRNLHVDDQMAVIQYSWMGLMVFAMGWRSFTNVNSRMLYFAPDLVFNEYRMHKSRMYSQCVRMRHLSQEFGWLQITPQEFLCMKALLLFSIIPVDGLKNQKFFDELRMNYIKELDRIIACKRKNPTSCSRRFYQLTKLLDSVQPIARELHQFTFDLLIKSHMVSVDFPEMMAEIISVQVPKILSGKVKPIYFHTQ

Compound `C[C@]12CC[C@@H]3c4ccc(O)cc4C[C@@H](CCCCCCCCC[S+]([O-])CCCC(F)(F)C(F)(F)F)[C@H]3[C@@H]1CC[C@@H]2O` (stereo partly shown) [Fulvestrant] has an IC50 (AR) greater than 4 µM.

For `CC/C(=C(/c1ccc(/C=C/C(=O)O)cc1)c1ccc2[nH]ncc2c1)c1ccc(F)cc1Cl` [GDC-0810], the “patients with complete/near complete (>90%) suppression of FES uptake” value (ER) is listed as 90 % of patients.

`CC/C(=C(\c1ccc(O)cc1)c1ccc(OCCN(C)C)cc1)c1ccccc1` [4-OH Tam, 4-hydroxytamoxifen] gave an IC50 (PR-B) of 7.16 ± 2.15 µM and an IC50 (GR) of 1.47 ± 1.18 µM.
